The values that follow come from US20240376084A1, “INHIBITORS OF ALPHA-HEMOLYSIN OF STAPHYLOCOCCUS AUREUS” (Helmholtz-Zentrum Fur Infektionsforschung GmbH, priority 2021, published 2024).

As a reminder, the IC50 is the concentration needed to halve the response being measured. A higher IC50 goes with a need for much substance. The EC50 is the midpoint of the concentration-response curve.

Assay [1] deals with hemolysin alpha from Staphylococcus aureus (Staphylococcus aureus, UniProt P09616). Briefly: cell-based.
The target in assay [2] is S. aureus Alpha hemolysin (Staphylococcus aureus, UniProt P09616). Briefly: cell-based. The conditions noted are these: A549-LDH Assay activity.
Chain of S. aureus Alpha hemolysin (P09616 27-319 limits assumed): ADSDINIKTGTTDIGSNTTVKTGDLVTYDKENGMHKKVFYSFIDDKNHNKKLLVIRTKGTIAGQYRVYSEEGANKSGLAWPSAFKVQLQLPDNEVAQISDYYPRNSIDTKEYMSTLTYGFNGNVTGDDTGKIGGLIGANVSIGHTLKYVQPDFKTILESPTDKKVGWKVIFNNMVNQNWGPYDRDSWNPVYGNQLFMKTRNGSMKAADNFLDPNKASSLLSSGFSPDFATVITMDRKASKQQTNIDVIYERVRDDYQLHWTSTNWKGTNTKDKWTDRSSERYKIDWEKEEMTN

Chain of hemolysin alpha from Staphylococcus aureus (P09616 27-319 limits assumed): as above

`Cc1cccc(-c2c(C)cc(NS(=O)(=O)c3cc4[nH]c(=O)c(=O)[nH]c4cc3C)cc2C)c1` [Compound 175, 7-methyl-2,3-dioxo-N-(2,3′,6-trimethyl-[1,1′-biphenyl]-4-yl)-1,2,3,4-tetrahydroquinoxaline-6-sulfonamide]: in assay [1], the IC50 lay within 0.1 to 1 µM. In assay [2], this compound displayed a half-maximal effective concentration (EC50) of 0.1 to 1 µM.
In turn, `Cc1cc2[nH]c(=O)c(=O)[nH]c2cc1S(=O)(=O)Nc1ccc(Cl)cc1` [Compound 177, N-(4-chlorophenyl)-7-methyl-2,3-dioxo-1,2,3,4-tetrahydroquinoxaline-6-sulfonamide] displayed a half-maximal inhibitory concentration (IC50) in assay [1] of 0.1 to 1 µM. The EC50 in assay [2] lay in the range of 0.1 to 1 µM.
As for `Cc1cc2[nH]c(=O)c(=O)[nH]c2cc1S(=O)(=O)Nc1ccc(-c2ccccc2C(=O)O)cc1` [Compound 182, 4′-((7-methyl-2,3-dioxo-1,2,3,4-tetrahydroquinoxaline)-6-sulfonamido)-[1,1′-biphenyl]-2-carboxylic acid], the IC50 in assay [1] fell in the range of 1 to 3.5 µM. This compound also displayed an EC50 in assay [2] of 1 to 6 µM.
`O=c1[nH]c2cc(OC(F)(F)F)c(S(=O)(=O)Nc3ccc(-c4ccc(F)cc4)c(Cl)c3)cc2[nH]c1=O` [Compound 197, N-(2-chloro-4′-fluoro-[1,1′-biphenyl]-4-yl)-2,3-dioxo-7-(trifluoromethoxy)-1,2,3,4-tetrahydroquinoxaline-6-sulfonamide]: the half-maximal effective concentration (EC50) in assay [1] fell in the range of 1 to 3.5 µM; in assay [2], 1 to 6 µM.
For `Cc1cc2[nH]c(=O)c(=O)[nH]c2cc1S(=O)(=O)Nc1ccc(N2CCOCC2(C)C)c(Cl)c1` [Compound 202, N-(3-chloro-4-(3,3-dimethylmorpholino)phenyl)-7-methyl-2,3-dioxo-1,2,3,4-tetrahydroquinoxaline-6-sulfonamide], the concentration giving a half-maximal response (EC50) in assay [1] and in assay [2] was 0.1 to 1 µM in each case.
In the case of `Cc1cc2[nH]c(=O)c(=O)[nH]c2cc1S(=O)(=O)Nc1ccc(-c2cccc(N3CCC3)c2)c(Cl)c1` [Compound 206, N-(3′-(azetidin-1-yl)-2-chloro-[1,1′-biphenyl]-4-yl)-7-methyl-2,3-dioxo-1,2,3,4-tetrahydroquinoxaline-6-sulfonamide], the EC50 is less than 0.03 µM in assay [1] and 0.03 to 0.1 µM in assay [2].
`Cc1cc2[nH]c(=O)c(=O)[nH]c2cc1S(=O)(=O)Nc1cc(Cl)c(-c2cccc(Cl)c2)cn1` [Compound 210, N-(4-chloro-5-(3-chlorophenyl)pyridin-2-yl)-7-methyl-2,3-dioxo-1,2,3,4-tetrahydroquinoxaline-6-sulfonamide]: the EC50 was in the range of 0.03 to 0.1 µM in assay [1] and 0.1 to 1 µM in assay [2].
The like results for `Cc1cc2[nH]c(=O)c(=O)[nH]c2cc1S(=O)(=O)Nc1cc(Cl)c(-c2ccc(F)c(Cl)c2)cn1` [Compound 211, N-(4-chloro-5-(3-chloro-4-fluorophenyl)pyridin-2-yl)-7-methyl-2,3-dioxo-1,2,3,4-tetrahydroquinoxaline-6-sulfonamide] were, in that order, 0.1 to 1 µM and 0.1 to 1 µM.
As to `N#Cc1cc2[nH]c(=O)c(=O)[nH]c2cc1S(=O)(=O)Nc1ccc(OC(F)(F)F)cc1` [Compound 216, 7-cyano-2,3-dioxo-N-(4-(trifluoromethoxy)phenyl)-1,2,3,4-tetrahydroquinoxaline-6-sulfonamide], the EC50 in assay [1] and in assay [2] was 0.1 to 1 µM each time.
Take `[2H]C([2H])([2H])c1cc2[nH]c(=O)c(=O)[nH]c2cc1S(=O)(=O)Nc1ccc(OC(F)(F)F)cc1` [Compound 217, 7-(methyl-d3)-2,3-dioxo-N-(4-(trifluoromethoxy)phenyl)-1,2,3,4-tetrahydroquinoxaline-6-sulfonamide]: the concentration giving a half-maximal response (EC50) in assay [1] and in assay [2] was less than 0.03 µM throughout.
On to `O=c1[nH]c2cc(C(F)F)c(S(=O)(=O)Nc3ccc(OC(F)(F)F)cc3)cc2[nH]c1=O` [Compound 218, 7-(difluoromethyl)-2,3-dioxo-N-(4-(trifluoromethoxy)phenyl)-1,2,3,4-tetrahydroquinoxaline-6-sulfonamide], for which the 50% effective concentration (EC50) in assay [1] and in assay [2] was 0.1 to 1 µM each time.
As to `Cc1cc2[nH]c(=O)c(=O)[nH]c2cc1S(=O)(=O)NC12CC(c3ccccc3)(C1)C2` [Compound 230, 7-methyl-2,3-dioxo-N-(3-phenylbicyclo[1.1.1]pentan-1-yl)-1,2,3,4-tetrahydroquinoxaline-6-sulfonamide], the concentration giving a half-maximal response (EC50) in assay [1] and in assay [2] was 0.1 to 1 µM each time.
As for `Cc1cc2[nH]c(=O)c(=O)[nH]c2cc1S(=O)(=O)Nc1ccc(N2CCOC[C@H]2C)c(Cl)c1` [Compound 243, (R)-N-(3-chloro-4-(3-methylmorpholino)phenyl)-7-methyl-2,3-dioxo-1,2,3,4-tetrahydroquinoxaline-6-sulfonamide], the 50% effective concentration (EC50) lay within 1 to 3.5 µM in assay [1] and 0.1 to 1 µM in assay [2].
As for `Cc1cc2[nH]c(=O)c(=O)[nH]c2cc1S(=O)(=O)Nc1ccc(-c2ccc(F)cc2)c(Br)c1` [Compound 244, N-[3-bromo-4-(4-fluorophenyl)phenyl]-7-methyl-2,3-dioxo-1,4-dihydroquinoxaline-6-sulfonamide], the EC50 in assay [1] was less than 0.03 µM; in assay [2] it was 0.03 to 0.1 µM.
On the same counts, the results for `Cc1cc2[nH]c(=O)c(=O)[nH]c2cc1S(=O)(=O)Nc1ccc(-c2cccc(C(N)=O)c2)c(Cl)c1` [Compound 245, 3-[2-chloro-4-[(7-methyl-2,3-dioxo-1,4-dihydroquinoxalin-6-yl)sulfonylamino]phenyl] benzamide] are less than 0.03 µM and 0.03 to 0.1 µM.
As to `COc1ccc(-c2ccc(NS(=O)(=O)c3cc4[nH]c(=O)c(=O)[nH]c4cc3C)cc2Cl)cc1` [Compound 246, N-[3-chloro-4-(4-methoxyphenyl)phenyl]-7-methyl-2,3-dioxo-1,4-dihydroquinoxaline-6-sulfonamide], the EC50 in assay [1] was less than 0.03 µM; in assay [2] it was 0.03 to 0.1 µM.
Turning to `Cc1cc2[nH]c(=O)c(=O)[nH]c2cc1S(=O)(=O)Nc1ccc(-c2ccc3c(c2)OCO3)c(Cl)c1` [Compound 247, N-[4-(1,3-benzodioxol-5-yl)-3-chloro-phenyl]-7-methyl-2,3-dioxo-1,4-dihydroquinoxaline-6-sulfonamide], the EC50 in assay [1] is less than 0.03 µM; in assay [2] it was 0.03 to 0.1 µM.
Take `Cc1cc(C)cc(-c2ccc(NS(=O)(=O)c3cc4[nH]c(=O)c(=O)[nH]c4cc3C)cc2Cl)c1` [Compound 248, N-[3-chloro-4-(3,5-dimethylphenyl)phenyl]-7-methyl-2,3-dioxo-1,4-dihydroquinoxaline-6-sulfonamide]: the EC50 in assay [1] and in assay [2] was 0.1 to 1 µM each time.
With `CC(=O)c1cccc(-c2ccc(NS(=O)(=O)c3cc4[nH]c(=O)c(=O)[nH]c4cc3C)cc2Cl)c1` [Compound 249, N-[4-(3-acetylphenyl)-3-chloro-phenyl]-7-methyl-2,3-dioxo-1,4-dihydroquinoxaline-6-sulfonamide], the 50% effective concentration (EC50) in assay [1] was less than 0.03 µM; in assay [2], 0.1 to 1 µM.
On the same counts, the results for `Cc1cc2[nH]c(=O)c(=O)[nH]c2cc1S(=O)(=O)Nc1ccc(-c2ccc(F)cc2)c(N2CCOCC2)c1` [Compound 250, N-[4-(4-fluorophenyl)-3-morpholino-phenyl]-7-methyl-2,3-dioxo-1,4-dihydroquinoxaline-6-sulfonamide] are 0.1 to 1 µM and 1 to 6 µM.
`C#Cc1ccc(-c2ccc(NS(=O)(=O)c3cc4[nH]c(=O)c(=O)[nH]c4cc3C)cc2C#C)cc1` [Compound 251, N-(2,4′-diethynyl-[1,1′-biphenyl]-4-yl)-7-methyl-2,3-dioxo-1,2,3,4-tetrahydroquinoxaline-6-sulfonamide]: the EC50 in assay [1] and in assay [2] was less than 0.03 µM throughout.
